The values below are quoted from earlier work in patent publication US20090297596A1, “Nanoparticulate and Controlled Release Compositions Comprising a Platelet Aggregation Inhibitor” (ELAN PHARMA INTERNATIONAL LIMITED, priority 2005, published 2009).

Read-outs that look alike come from different tables or passages of the source.

Data set [1] has as its system phosphodiesterase III.

On to `O=C1CCc2cc(OCCCCc3nnnn3C3CCCCC3)ccc2N1` [Cilostazol, 6-[4-(1-cyclohexyl-1H-tetrazol-5-yl)butoxy]-3,4-dihydro-2(1H)-quinolinone], for which the “Inhibition of phosphodiesterase III” value in data set [1] is on record as “inhibits”. Also, the Solubility result reads like this: (absolute ether) “practically insoluble”; (benzyl alcohol) “soluble”; (chloroform) “freely soluble”; (dimethylformamide) “soluble”; (ethanol) “slightly soluble”; (methanol) “slightly soluble”. Moreover, the Solubility result is, setting by setting: (mixture of chloroform and methanol (1:1)) “soluble”; (water) “practically insoluble”.
